Results: PubChem BioAssay (NCI)
Where “and” joins values, the source holds several entries; their conditions need not be identical. Identical values can stand only once.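 Compound exposure: 48 hours, 5 concentrations, 96-well plates. GI50 marks 50% less growth. The concentration for full growth arrest is given as TGI.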

Key:
Assay in all cases: growth of human tumour cells (NCI), 48 h
[1] = test system: LOX IMVI melanoma
[2] = test system: NCI-H522 lung
[3] = test system: HOP-92 NSCLC
[4] = test system: HL-60(TB) leukemia
[5] = test system: IGROV1 ovarian
[6] = test system: UACC-62 melanoma
[7] = test system: KM12 colon
[8] = test system: HCT-15 colon
[9] = test system: CAKI-1 renal
[10] = test system: CCRF-CEM leukemia
[11] = test system: PC-3 prostate
[12] = test system: HOP-62 NSCLC
[13] = test system: BT-549 breast
[14] = test system: SK-MEL-28 melanoma
[15] = test system: NCI-H23 lung
[16] = test system: SF-539 CNS
[17] = test system: T-47D breast
[18] = test system: SW-620 colon
[19] = test system: K-562 leukemia
[20] = test system: HCC-2998 colon
[21] = test system: OVCAR-5 ovarian
[22] = test system: OVCAR-8 ovarian
[23] = test system: SF-268 CNS
[24] = test system: SNB-75 CNS
[25] = test system: DU-145 prostate
[26] = test system: OVCAR-4 ovarian
[27] = test system: NCI-H460 lung
[28] = test system: A498 renal
[29] = test system: SK-MEL-5 melanoma
[30] = test system: RPMI-8226 leukemia
[31] = test system: SR leukemia
[32] = test system: SK-OV-3 ovarian
[33] = test system: SNB-19 CNS
[34] = test system: SK-MEL-2 melanoma
[35] = test system: RXF 393 renal
[36] = test system: EKVX NSCLC
[37] = test system: COLO 205 colon
[38] = test system: MOLT-4 leukemia
[39] = test system: HCT-116 colon
[40] = test system: NCI-H226 lung
[41] = test system: HT29 colon
[42] = test system: OVCAR-3 ovarian
[43] = test system: NCI/ADR-RES ovarian
[44] = test system: MDA-MB-435
[45] = test system: MALME-3M melanoma
[46] = test system: A549 NSCLC
[47] = test system: TK-10 renal
[48] = test system: HS 578T breast
[49] = test system: 786-0 renal
[50] = test system: M14 melanoma
[51] = test system: SN12C renal
[52] = test system: ACHN renal
[53] = test system: U251 CNS
[54] = test system: SF-295 CNS
[55] = test system: MDA-MB-231 breast
[56] = test system: UACC-257 melanoma
[57] = test system: MCF7 breast
[58] = test system: UO-31 renal

Structure (SMILES): O=C(NNc1nc2cc(F)c(F)cc2n2cccc12)c1cccnn1
- GI50 [1]: 247 nM and 156 nM
- TGI [1]: 1090 nM and 5270 nM
- GI50 [2]: 747 nM and 262 nM
- GI50 [3]: 398 nM
- TGI [3]: 8820 nM
- GI50 [4]: 570 nM and 231 nM
- GI50 [5]: 227 nM and 273 nM
- TGI [5]: 5020 nM and 4690 nM
- GI50 [6]: 331 nM and 388 nM
- TGI [6]: 2290 nM and 8830 nM
- GI50 [7]: 378 nM and 336 nM
- TGI [7]: 30000 nM and 33300 nM
- GI50 [8]: 123 nM and 46.8 nM
- TGI [8]: 30000 nM and 38300 nM
- GI50 [9]: 261 nM and 251 nM
- TGI [9]: 30000 nM and 11200 nM
- GI50 [10]: 76.5 nM
- TGI [10]: 1010 nM
- GI50 [11]: 201 nM and 419 nM
- GI50 [12]: 275 nM and 99.4 nM
- TGI [12]: 9220 nM and 11300 nM
- GI50 [13]: 1400 nM and 271 nM
- TGI [13]: 30000 nM and 24800 nM
- GI50 [14]: 504 nM and 515 nM
- TGI [14]: 30000 nM and 22400 nM
- GI50 [15]: 654 nM
- TGI [15]: 50800 nM
- GI50 [16]: 349 nM and 339 nM
- TGI [16]: 9180 nM and 8100 nM
- GI50 [17]: 838 nM and 293 nM
- TGI [17]: 24500 nM and 9750 nM
- GI50 [18]: 231 nM and 354 nM
- TGI [18]: 30000 nM and 60300 nM
- GI50 [19]: 374 nM and 323 nM
- TGI [19]: 30000 nM and 3780 nM
- GI50 [20]: 589 nM and 474 nM
- TGI [20]: 30000 nM and 19500 nM
- GI50 [21]: 693 nM and 2310 nM
- TGI [21]: 30000 nM and 32300 nM
- GI50 [22]: 322 nM and 269 nM
- TGI [22]: 30000 nM and > 100000 nM
- GI50 [23]: 364 nM and 274 nM
- TGI [23]: 30000 nM and > 100000 nM
- GI50 [24]: 267 nM and 1910 nM
- TGI [24]: 22000 nM and 25400 nM
- GI50 [25]: 346 nM and 579 nM
- TGI [25]: 30000 nM and 16100 nM
- GI50 [26]: 209 nM and 201 nM
- TGI [26]: 30000 nM and > 100000 nM
- GI50 [27]: 134 nM and 81 nM
- TGI [27]: 3650 nM and 1960 nM
- GI50 [28]: 614 nM and 382 nM
- TGI [28]: 3260 nM and 2450 nM
- GI50 [29]: 491 nM and 271 nM
- TGI [29]: 3350 nM and 2000 nM
- GI50 [30]: 305 nM and 338 nM
- TGI [30]: 1150 nM and 7720 nM
- GI50 [31]: 175 nM and 48.6 nM
- GI50 [32]: 300 nM and 326 nM
- TGI [32]: 11400 nM and 17900 nM
- GI50 [33]: 394 nM and 434 nM
- TGI [33]: 30000 nM and > 100000 nM
- GI50 [34]: 963 nM and 1490 nM
- TGI [34]: 30000 nM and 15500 nM
- GI50 [35]: 700 nM and 245 nM
- TGI [35]: 4130 nM and 13200 nM
- GI50 [36]: 255 nM and 190 nM
- TGI [36]: 30000 nM and 16100 nM
- GI50 [37]: 384 nM and 321 nM
- TGI [37]: 30000 nM and 19100 nM
- GI50 [38]: 178 nM and 136 nM
- GI50 [39]: 207 nM and 173 nM
- TGI [39]: 30000 nM and 11900 nM
- GI50 [40]: 387 nM and 643 nM
- TGI [40]: 14700 nM and 12100 nM
- GI50 [41]: 644 nM and 542 nM
- TGI [41]: 30000 nM and 29200 nM
- GI50 [42]: 227 nM and 243 nM
- TGI [42]: 3710 nM and 13200 nM
- GI50 [43]: 205 nM and 207 nM
- TGI [43]: 2880 nM and 3560 nM
- GI50 [44]: 1160 nM and 811 nM
- TGI [44]: 30000 nM and 19900 nM
- GI50 [45]: 771 nM and 811 nM
- TGI [45]: 28700 nM
- GI50 [46]: 316 nM and 249 nM
- TGI [46]: 30000 nM and 15000 nM
- GI50 [47]: 263 nM and 294 nM
- TGI [47]: 30000 nM and 29000 nM
- GI50 [48]: 1400 nM and 1040 nM
- TGI [48]: 30000 nM and 79000 nM
- GI50 [49]: 669 nM and 296 nM
- TGI [49]: 30000 nM and 12900 nM
- GI50 [50]: 309 nM and 197 nM
- TGI [50]: 30000 nM and 11500 nM
- GI50 [51]: 468 nM and 646 nM
- TGI [51]: 30000 nM and 31400 nM
- GI50 [52]: 158 nM and 134 nM
- TGI [52]: 8320 nM and 6530 nM
- GI50 [53]: 229 nM and 172 nM
- TGI [53]: 30000 nM and 36100 nM
- GI50 [54]: 202 nM and 97.5 nM
- TGI [54]: 5230 nM and 6170 nM
- GI50 [55]: 559 nM and 750 nM
- TGI [55]: 30000 nM and 54700 nM
- GI50 [56]: 802 nM and 364 nM
- TGI [56]: 2890 nM and 11000 nM
- GI50 [57]: 408 nM and 304 nM
- TGI [57]: 4310 nM and 2830 nM
- GI50 [58]: 105 nM and 41.4 nM
- TGI [58]: 3970 nM and 2340 nM
